From patent publication US20210198256A1, “COMPOUNDS FOR THE DEGRADATION OF BRD9 OR MTH1” (C4 Therapeutics, Inc., priority 2018, published 2021)

System: SMARTCAR-MTH1-wt-HiBiT (Jurkat.7 cells)
Assay: HiBit Lytic Assay (HiBit DC50, MTH1 degraders of Table 2)
Assay type: cell-based, human
Conditions: Jurkat.7 SMARTCAR-MTH1-wt-HiBiT cells, compound treatment time 4 hr, 11-point half log dose response
Protocol: Example 3. HiBit Lytic Assay
• Compound is made at 10 mM, half log dilution, 11 points. • MDR plates can also be ordered from Frontier with same format. • 1. Barcode a 384LDV plate (384-well Low Dead Volume Microplate, Labcyte LP-0200) (Echo compatible) on the left side. • 2. Transfer 13.6 μL of 10 mM compound into column 1 of LDV plate (Labcyte). • 3. Fill column 2-11 and column 23 of MDR plate with 9.30 μL of DMSO. • 4. Serial dilute 3.16 fold from column 1 to 2 by transferring 4.30 μL from column 1 to column 2, and so on to column 11. *Change tip in every dilution to prevent compound carryover effect! • 5. Seal the plate with Plate Sealer, then store the MDR plate at room temperature for short term storage and in −20° C. for long term storage.
• Cells are treated with 30 nL of each compound at 10 mM, half log dilution, 11 points with final concentration of 1000 nM or 833 nM, half log dilution, 11 points, in duplicates. Final DMSO concentration is 0.1%. • 1. Barcode the plates made on the left side and label the plates with silver marker. • 2. Dispense with the following scheme: • a. 30 nL of compound into corresponding wells in cell plates via Echo550 with “MDR32_HiBiT16_30 nL”. Top concentration will be 1000 nM. • 3. Seal the plate with Plate Sealer.
• Cells are dispensed at density specified in Cell Line Table in 384-well microplate. • 1. Culture cells to between 50-80% of confluence in sterile culture flasks of appropriate size. • 2. For Adherent Cell Lines: • a. Aspirate off growth media in culture flask, and wash off the Phenol Red media with 5 mL of 1×PBS. • b. Add 5 mL of Trypsin to the cells, incubate at 37° C. for 5 minutes. • c. Add 5 mL of growth media to the trypsinzed cells, and resuspend. • 3. Remove 10 μL of cells, and resuspend the cells with 10 μL of Trypan Blue. Insert the solution to counting chamber slide, and count the cells via cell counter. • 4. Adjust the cell concentration to specified plating density, and strain the cells with cell strainer. • 5. Dispense the cells via E1-ClipTip™ Electronic Multichannel Pipettes or Multidrop™ Combi Reagent Dispenser with Standard tube dispensing cassette: • a. Prime the cassette with 10-20 mL of ddH2O. • b. Prime the cassette with 10-20 mL of cells. • c. Dispense the cells at low speed for 30 μL/well in Corning® 384 Well Low Flange Black Flat Bottom Polystyrene TC-Treated Microplate. • d. Wash the cassette with 10-20 mL of ddH2O, follow by 10-20 mL of 70% EtOH, then again with 10-20 mL of ddH2O. • 6. Incubate the plates at 37° C.×compound treatment time.
• 1. If not already, bring Nano-Glo® HiBiT Lytic Buffer to room temperature. • 2. Determine the amount of reagent needed. A volume of reagent equal to the volume of media in the well should be added (i.e. 30 μL of cells will need 30 μL of HiBiT Lytic reagent). • 3. Into a given volume of buffer, dilute the substrate 50-fold and the LgBiT protein 100-fold. For example, to make 10 ml of reagent, add the following: • 10 ml Nano-Glo® HiBiT Lytic Buffer • 200 μl Nano-Glo® HiBiT Lytic Substrate • 100 μl LgBiT Protein • The reagent should be reconstituted immediately before use. However, once reconstituted, it should take about 4 hours for the activity to decrease 10%. • 4. Cool down the cell plate to room temperature for 10-15 minutes without lid. • 5. Dispense the HiBiT Lytic Reagent via E1-ClipTip™ Electronic Multichannel Pipettes or Multidrop™ Combi Reagent Dispenser with Standard tube dispensing cassette: • a. Prime the cassette with 10-20 mL of ddH2O. • b. Prime the cassette with 10-20 mL of CTG 2.0. • c. Dispense the HiBiT Lytic Reagent at medium speed for 30 μL/well in cell plate to column 1-23 (column 24 will be used as plate background). • d. Wash the cassette with 10-20 mL of ddH2O, follow by 10-20 mL of 70% EtOH, then again with 10-20 mL of ddH2O. • 6. Incubate the cell plate at room temperature for 10 minutes without lid. • 7. […]

Structure (SMILES)	DC50 [µM]
CNC(=O)c1cnc2cc(C(F)(F)F)c(-c3ccc(C(=O)NCCCCNC(=O)COc4cccc5c4C(=O)N(C4CCC(=O)NC4=O)C5=O)c(F)c3)cc2c1Nc1ccccc1 (stereo not shown) [Compound 379, 6-(4-((4-(2-((2-(2,6-dioxopiperidin-3-yl)-1,3-dioxoisoindolin-4-yl)oxy)acetamido)butyl)carbamoyl)-3-fluorophenyl)-N-methyl-4-(phenylamino)-7-(trifluoromethyl)quinoline-3-carboxamide]	< 0.1
CNC(=O)c1cnc2ccc(CC(=O)NCCCCCCCCNC(=O)COc3cccc4c3C(=O)N(C3CCC(=O)NC3=O)C4=O)cc2c1Nc1ccccc1 (stereo not shown) [Compound 459, 6-(2-((8-(2-((2-(2,6-dioxopiperidin-3-yl)-1,3-dioxoisoindolin-4-yl)oxy)acetamido)octyl)amino)-2-oxoethyl)-N-methyl-4-(phenylamino)quinoline-3-carboxamide]	< 0.1
CNc1c(C(=O)NC2CC2)cnc2cc(F)c(-c3ccc(C(=O)NCCCCCCCCc4cnc5c(c4)CN(C4CCC(=O)NC4=O)C5=O)c(F)c3)cc12 (stereo not shown) [Compound 405, N-cyclopropyl-6-[4-[8-[6-(2,6-dioxo-3-piperidyl)-7-oxo-5H-pyrrolo[3,4-b]pyridin-3-yl]octylcarbamoyl]-3-fluoro-phenyl]-7-fluoro-4-(methylamino)quinoline-3-carboxamide]	< 0.1
CNC(=O)c1cnc2cc(OC)c(-c3ccc(C(=O)NCCCCn4cc(CNc5cccc6c5C(=O)N(C5CCC(=O)NC5=O)C6=O)nn4)cn3)cc2c1Nc1ccccc1 (stereo not shown) [Compound 376, 6-(5-((4-(4-(((2-(2,6-dioxopiperidin-3-yl)-1,3-dioxoisoindolin-4-yl)amino)methyl)-1H-1,2,3-triazol-1-yl)butyl)carbamoyl)pyridin-2-yl)-7-methoxy-N-methyl-4-(phenylamino)quinoline-3-carboxamide]	< 0.1
CC(C)NC(=O)c1cnc2ccc(NCCCCCCCCCCNC(=O)COc3cccc4c3C(=O)N(C3CCC(=O)NC3=O)C4=O)cc2c1Nc1ccccc1 (stereo not shown) [Compound 457, 6-((10-(2-((2-(2,6-dioxopiperidin-3-yl)-1,3-dioxoisoindolin-4-yl)oxy)acetamido)decyl)amino)-N-isopropyl-4-(phenylamino)quinoline-3-carboxamide]	< 0.1
CC(Nc1cccc2c1C(=O)N(C1CCC(=O)NC1=O)C2=O)c1cn(CCCCNC(=O)c2ccc(-c3cc4c(Nc5ccccc5)c(C(=O)NC5CC5)cnc4cc3F)cc2F)nn1 (stereo not shown) [Compound 433, N-cyclopropyl-6-(4-((4-(4-(1-((2-(2,6-dioxopiperidin-3-yl)-1,3-dioxoisoindolin-4-yl)amino)ethyl)-1H-1,2,3-triazol-1-yl)butyl)carbamoyl)-3-fluorophenyl)-7-fluoro-4-(phenylamino)quinoline-3-carboxamide]	< 0.1
CNC(=O)c1cnc2ccc(CNC(=O)CCCCCCCCNC(=O)COc3cccc4c3C(=O)N(C3CCC(=O)NC3=O)C4=O)cc2c1Nc1ccccc1 (stereo not shown) [Compound 456, 6-((9-(2-((2-(2,6-dioxopiperidin-3-yl)-1,3-dioxoisoindolin-4-yl)oxy)acetamido)nonanamido)methyl)-N-methyl-4-(phenylamino)quinoline-3-carboxamide]	< 0.1
NC(=O)c1cnc2ccc(NC(=O)CCCCCCCCCNC(=O)COc3cccc4c3C(=O)N(C3CCC(=O)NC3=O)C4=O)cc2c1Nc1ccccc1 (stereo not shown) [Compound 467, 6-(10-(2-((2-(2,6-dioxopiperidin-3-yl)-1,3-dioxoisoindolin-4-yl)oxy)acetamido)decanamido)-4-(phenylamino)quinoline-3-carboxamide]	< 0.1
CNC(=O)c1cnc2ccc(NCCCCCCCCCCNC(=O)CN(C)c3cccc4c3C(=O)N(C3CCC(=O)NC3=O)C4=O)cc2c1Nc1ccccc1 (stereo not shown) [Compound 447, 6-((10-(2-((2-(2,6-dioxopiperidin-3-yl)-1,3-dioxoisoindolin-4-yl)(methyl)amino)acetamido)decyl)amino)-N-methyl-4-(phenylamino)quinoline-3-carboxamide]	< 0.1

The next lines start with the values.

DC50 [µM]	Structure (SMILES)
< 0.1	CNC(=O)c1cnc2ccc(-c3ccc(C(=O)NCCCNC(=O)C(C)Nc4cccc5c4C(=O)N(C4CCC(=O)NC4=O)C5=O)cc3)cc2c1Nc1ccccc1 (stereo not shown) [Compound 363, 4-anilino-6-[4-[3-[2-[[2-(2,6-dioxo-3-piperidyl)-1,3-dioxo-isoindolin-4-yl]amino]propanoylamino]propylcarbamoyl]phenyl]-N-methyl-quinoline-3-carboxamide]
< 0.1	CNC(=O)c1cnc2cc(C(F)(F)F)c(-c3ccc(C(=O)NCCCCNC(=O)CNc4cccc5c4C(=O)N(C4CCC(=O)NC4=O)C5=O)c(F)c3)cc2c1Nc1ccccc1 (stereo not shown) [Compound 375, 6-(4-((4-(2-((2-(2,6-dioxopiperidin-3-yl)-1,3-dioxoisoindolin-4-yl)amino)acetamido)butyl)carbamoyl)-3-fluorophenyl)-N-methyl-4-(phenylamino)-7-(trifluoromethyl)quinoline-3-carboxamide]
< 0.1	CNC(=O)c1cnc2ccc(-c3ccc(C(=O)NCCCCNC(=O)C(C)Nc4cccc5c4C(=O)N(C4CCC(=O)NC4=O)C5=O)c(F)c3)cc2c1Nc1ccccc1 (stereo not shown) [Compound 372, 4-anilino-6-[4-[4-[2-[[2-(2,6-dioxo-3-piperidyl)-1,3-dioxo-isoindolin-4-yl]amino]propanoylamino]butylcarbamoyl]-3-fluoro-phenyl]-N-methyl-quinoline-3-carboxamide]
< 0.1	CNC(=O)c1cnc2ccc(-c3ccc(C(=O)NCCCNC(=O)CN(C)c4cccc5c4C(=O)N(C4CCC(=O)NC4=O)C5=O)cc3)cc2c1Nc1ccccc1 (stereo not shown) [Compound 473, 6-(4-((3-(2-((2-(2,6-dioxopiperidin-3-yl)-1,3-dioxoisoindolin-4-yl)(methyl)amino)acetamido)propyl)carbamoyl)phenyl)-N-methyl-4-(phenylamino)quinoline-3-carboxamide]
< 0.1	CNC(=O)c1cnc2ccc(-c3ccc(NCCCCNC(=O)CNc4cccc5c4C(=O)N(C4CCC(=O)NC4=O)C5=O)nc3)cc2c1Nc1ccccc1 (stereo not shown) [Compound 365, 4-anilino-6-[6-[4-[[2-[[2-(2,6-dioxo-3-piperidyl)-1,3-dioxo-isoindolin-4-yl]amino]acetyl]amino]butylamino]-3-pyridyl]-N-methyl-quinoline-3-carboxamide]
< 0.1	CNC(=O)c1cnc2ccc(-c3ccc(C(=O)NCCCCNC(=O)CN(C)c4cccc5c4C(=O)N(C4CCC(=O)NC4=O)C5=O)cc3)cc2c1Nc1ccccc1 (stereo not shown) [Compound 474, 6-(4-((4-(2-((2-(2,6-dioxopiperidin-3-yl)-1,3-dioxoisoindolin-4-yl)(methyl)amino)acetamido)butyl)carbamoyl)phenyl)-N-methyl-4-(phenylamino)quinoline-3-carboxamide]
< 0.1	CNC(=O)c1cnc2ccc(-c3ccc(C(=O)NCCCNC(=O)CNc4cccc5c4C(=O)N(C4CCC(=O)NC4=O)C5=O)cc3)cc2c1Nc1ccccc1 (stereo not shown) [Compound 472, 6-(4-((3-(2-((2-(2,6-dioxopiperidin-3-yl)-1,3-dioxoisoindolin-4-yl)amino)acetamido)propyl)carbamoyl)phenyl)-N-methyl-4-(phenylamino)quinoline-3-carboxamide]
